Values of other authors in patent EP4233849A1, “PHARMACEUTICAL COMPOSITION COMPRISING POMALIDOMIDE” (KRKA, d.d., Novo mesto, priority 2022, dated 2023).
Read-outs that look alike come from different tables or passages of the source.

Legend:
[1] = according to BCS classification
[2] = accelerated and room temperature conditions; anhydrous lactose, microcrystalline cellulose, anhydrous dibasic calcium phosphate, croscarmellose sodium, magnesium stearate

solubility (in absolute ethanol, ethyl acetate, heptane, methanol, 2-propanol and toluene): very slightly soluble
solubility (in acetone, acetonitrile, methylene chloride, methyl ethyl ketone and tetrahydrofuran): slightly soluble
solubility (in water): practically insoluble
solubility [1]: low solubility
stability in the presence of particular excipients [2]: instability problems
SMILES: Nc1cccc2c1C(=O)N(C1CCC(=O)NC1=O)C2=O (racemic) [Pomalidomide, (RS) 4-Amino-2-(2,6-dioxopiperidin-3-yl)isoindole-1,3-dione]
